ChEMBL document CHEMBL4177521, “Therapeutic Potential of Fatty Acid Amide Hydrolase, Monoacylglycerol Lipase, and N-Acylethanolamine Acid Amidase Inhibitors” (J Med Chem, 2017)

Key:
[1] = molecular target: T1, Fatty-acid amide hydrolase 1 (Rattus norvegicus, UniProt P97612); assay: Inhibition of rat FAAH expressed in HEK293 cells by LC/MS analysis; assay type: cell-based
T1 sequence (P97612 whole entry): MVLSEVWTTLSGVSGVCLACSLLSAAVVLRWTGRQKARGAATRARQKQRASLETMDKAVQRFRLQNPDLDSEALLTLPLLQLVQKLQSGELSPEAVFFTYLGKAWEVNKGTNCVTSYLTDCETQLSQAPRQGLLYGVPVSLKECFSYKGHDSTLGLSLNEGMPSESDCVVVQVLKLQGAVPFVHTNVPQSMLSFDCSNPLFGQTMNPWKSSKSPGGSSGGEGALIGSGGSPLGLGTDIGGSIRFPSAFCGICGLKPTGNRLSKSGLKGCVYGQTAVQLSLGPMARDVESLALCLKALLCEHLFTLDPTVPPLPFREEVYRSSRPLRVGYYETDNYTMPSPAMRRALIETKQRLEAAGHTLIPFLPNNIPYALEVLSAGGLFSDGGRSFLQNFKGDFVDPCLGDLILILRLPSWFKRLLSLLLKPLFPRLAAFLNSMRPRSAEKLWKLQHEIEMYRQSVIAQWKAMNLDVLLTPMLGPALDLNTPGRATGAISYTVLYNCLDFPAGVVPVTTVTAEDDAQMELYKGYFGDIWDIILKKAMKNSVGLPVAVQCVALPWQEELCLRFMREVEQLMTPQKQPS

[2] = molecular target: T2, N-acylethanolamine-hydrolyzing acid amidase (Rattus norvegicus, UniProt Q5KTC7); assay: Inhibition of rat NAAA expressed in HEK293 cells by LC/MS analysis; assay type: cell-based
T2 sequence (Q5KTC7 whole entry): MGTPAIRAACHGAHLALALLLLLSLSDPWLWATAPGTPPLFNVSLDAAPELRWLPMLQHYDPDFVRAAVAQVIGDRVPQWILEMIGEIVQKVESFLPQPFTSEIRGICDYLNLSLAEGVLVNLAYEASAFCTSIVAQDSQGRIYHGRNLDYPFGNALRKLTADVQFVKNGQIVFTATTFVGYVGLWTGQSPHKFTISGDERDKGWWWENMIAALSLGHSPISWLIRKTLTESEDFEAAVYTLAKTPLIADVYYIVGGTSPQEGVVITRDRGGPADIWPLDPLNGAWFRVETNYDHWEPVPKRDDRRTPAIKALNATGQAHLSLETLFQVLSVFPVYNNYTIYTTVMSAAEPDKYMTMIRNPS

[3] = molecular target: T3, Fatty-acid amide hydrolase 1 (Homo sapiens, UniProt O00519); assay: Inhibition of FAAH (unknown origin)
T3 sequence (O00519 whole entry): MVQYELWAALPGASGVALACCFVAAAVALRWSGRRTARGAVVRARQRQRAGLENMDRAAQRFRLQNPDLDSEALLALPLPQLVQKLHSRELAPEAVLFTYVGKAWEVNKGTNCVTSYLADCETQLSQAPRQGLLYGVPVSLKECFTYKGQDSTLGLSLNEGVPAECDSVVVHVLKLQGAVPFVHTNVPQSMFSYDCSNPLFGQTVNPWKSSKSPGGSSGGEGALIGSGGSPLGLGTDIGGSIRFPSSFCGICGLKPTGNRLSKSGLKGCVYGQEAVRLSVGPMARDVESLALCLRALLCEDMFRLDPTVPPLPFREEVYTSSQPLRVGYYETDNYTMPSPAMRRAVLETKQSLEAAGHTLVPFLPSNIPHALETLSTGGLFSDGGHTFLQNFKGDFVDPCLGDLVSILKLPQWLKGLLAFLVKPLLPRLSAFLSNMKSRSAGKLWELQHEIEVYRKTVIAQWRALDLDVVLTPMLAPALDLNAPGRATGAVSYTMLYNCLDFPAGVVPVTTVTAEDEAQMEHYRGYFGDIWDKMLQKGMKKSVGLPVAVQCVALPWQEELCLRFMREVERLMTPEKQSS

[4] = molecular target: T4, N-acylethanolamine-hydrolyzing acid amidase (Homo sapiens, UniProt Q02083); assay: Inhibition of NAAA (unknown origin)
T4 sequence (Q02083 whole entry): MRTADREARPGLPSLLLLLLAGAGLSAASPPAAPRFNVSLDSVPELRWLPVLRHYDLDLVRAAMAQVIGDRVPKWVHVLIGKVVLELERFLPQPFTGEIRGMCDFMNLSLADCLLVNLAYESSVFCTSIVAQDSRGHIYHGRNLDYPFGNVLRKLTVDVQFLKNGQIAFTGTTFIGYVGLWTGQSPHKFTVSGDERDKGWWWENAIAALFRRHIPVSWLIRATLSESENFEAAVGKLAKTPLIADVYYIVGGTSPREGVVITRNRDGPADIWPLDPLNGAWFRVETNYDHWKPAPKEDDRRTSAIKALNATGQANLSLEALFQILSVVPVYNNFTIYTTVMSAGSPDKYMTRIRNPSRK

[5] = Cmax in CD1 mouse plasma at 3 mg/kg, iv; assay type: ADME, organism-based; set-up: dose 3 mg/kg, route intravenous; settings: in vivo
[6] = Half life in rat liver microsomes; assay type: ADME, microsome
[7] = Half life in rat plasma; assay type: ADME, cell-free
[8] = Half life in CD1 mouse plasma at 3 mg/kg, iv; assay type: ADME, organism-based
[9] = Half life in mouse liver microsomes; assay type: ADME, microsome
[10] = Half life in mouse plasma; assay type: ADME, cell-free
[11] = molecular target: T5, Monoglyceride lipase (Homo sapiens, UniProt Q99685); assay: Inhibition of human MAGL
T5 sequence (Q99685 whole entry): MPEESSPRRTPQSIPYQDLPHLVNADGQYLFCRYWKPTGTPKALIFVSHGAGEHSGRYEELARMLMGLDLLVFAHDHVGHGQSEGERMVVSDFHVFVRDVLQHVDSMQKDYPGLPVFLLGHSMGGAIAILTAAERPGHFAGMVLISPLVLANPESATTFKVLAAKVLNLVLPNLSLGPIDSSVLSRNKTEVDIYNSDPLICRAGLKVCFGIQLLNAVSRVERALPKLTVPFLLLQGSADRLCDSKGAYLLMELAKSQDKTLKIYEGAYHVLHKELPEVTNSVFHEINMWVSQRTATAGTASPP

[12] = molecular target: Cannabinoid receptor 1 (Homo sapiens, UniProt P21554); assay: Antagonist activity at CB1R (unknown origin); assay type: functional
Cannabinoid receptor 1, sequence (P21554 whole entry): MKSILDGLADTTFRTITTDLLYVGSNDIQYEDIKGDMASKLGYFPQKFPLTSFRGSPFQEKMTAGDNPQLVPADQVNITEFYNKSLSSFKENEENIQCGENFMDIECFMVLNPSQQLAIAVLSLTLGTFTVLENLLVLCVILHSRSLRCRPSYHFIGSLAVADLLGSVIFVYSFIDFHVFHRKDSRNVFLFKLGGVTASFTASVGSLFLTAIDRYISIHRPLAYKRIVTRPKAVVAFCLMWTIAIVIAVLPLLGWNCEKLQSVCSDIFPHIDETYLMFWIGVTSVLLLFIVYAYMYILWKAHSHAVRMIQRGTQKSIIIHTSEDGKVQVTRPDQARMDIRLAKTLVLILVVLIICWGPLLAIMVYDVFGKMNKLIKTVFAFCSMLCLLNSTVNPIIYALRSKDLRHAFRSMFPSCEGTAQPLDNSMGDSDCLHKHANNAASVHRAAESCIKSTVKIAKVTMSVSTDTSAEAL

[13] = Oral bioavailability in monkey at 10 mg/kg; assay type: ADME, organism-based, Macaca mulatta; settings: rhesus monkey, in vivo
[14] = Half life in monkey at 10 mg/kg, po or 1 mg/kg, iv; assay type: ADME, organism-based, Macaca mulatta; settings: rhesus monkey, in vivo
[15] = molecular target: T1, Fatty-acid amide hydrolase 1; assay: Inhibition of Sprague-Dawley rat brain FAAH using [14C]anandamide as substrate by liquid scintillation counting method
[16] = molecular target: T6, Fatty-acid amide hydrolase 1 (Mus musculus, UniProt O08914); assay: Inhibition of CD1 mouse FAAH
T6 sequence (O08914 whole entry): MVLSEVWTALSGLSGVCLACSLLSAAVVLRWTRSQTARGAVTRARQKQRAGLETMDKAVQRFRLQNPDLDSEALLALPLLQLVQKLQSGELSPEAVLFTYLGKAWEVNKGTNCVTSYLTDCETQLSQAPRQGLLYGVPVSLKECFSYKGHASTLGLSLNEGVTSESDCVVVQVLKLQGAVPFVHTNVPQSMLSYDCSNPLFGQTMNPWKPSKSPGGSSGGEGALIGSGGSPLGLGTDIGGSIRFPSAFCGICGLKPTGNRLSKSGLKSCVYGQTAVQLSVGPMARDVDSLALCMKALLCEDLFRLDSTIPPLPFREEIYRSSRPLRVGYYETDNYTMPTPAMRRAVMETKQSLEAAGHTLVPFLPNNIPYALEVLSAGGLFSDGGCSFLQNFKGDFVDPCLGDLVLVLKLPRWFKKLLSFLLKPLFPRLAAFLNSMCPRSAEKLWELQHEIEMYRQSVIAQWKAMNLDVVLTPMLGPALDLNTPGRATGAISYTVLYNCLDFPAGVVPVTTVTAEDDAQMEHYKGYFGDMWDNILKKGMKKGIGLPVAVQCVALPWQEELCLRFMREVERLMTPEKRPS

[17] = molecular target: T6, Fatty-acid amide hydrolase 1; assay: Inhibition of mouse brain membrane FAAH preincubated for 10 mins followed by 14C-oleamide substrate addition measured up to 60 mins by TLC analysis

Work on `O=C(CCc1ccc(-c2ccccc2)cc1)N1CCCC1` yielded an IC50 [1] of over 100000 nM and an IC50 [2] of 2120 nM.

Work on `S=C=NCCCCCCCCCCc1ccccc1` yielded an IC50 [3] of over 100000 nM and an IC50 [4] of 30 nM.

Work on `O=C(N[C@H]1CNC1=O)OCCCCC1CCCCC1` yielded a Cmax [5] of 1610 ng/mL, a half-life [6] of under 5 min and a t1/2 [7] of 12 min. The half-life [8] was 15 min, the half-life [9] was under 5 min and the t1/2 [10] was 41 min.

Compound `CCCCCCCCCCCCCCCN=C=S` has an IC50 [11] of over 10000 nM and an IC50 [12] of over 10000 nM.

Compound `COc1cc(NC(=O)C(=O)c2c(C)n(Cc3ccc(Cl)cc3)c3ccc(C)cc23)ccn1` has a bioavailability [13] of 14 to 21%, an IC50 [3] of 10 nM and an IC50 [12] of over 1000 nM. The half-life [14] was 1020 to 1200 min.

For `CCCCCCCCCCCCCCCCS(=O)(=O)F` [HEXADECANESULFONYL FLUORIDE], the IC50 [15] was 13 nM.

Compound `C=C(OC(=O)N1CCCCC1)c1ccc(-c2ccccc2)cc1` has an IC50 [16] of 9 nM.

For `CN(C)C(=O)n1nnnc1Cc1ccc(-c2ccccc2)cc1`, the IC50 [17] was 12.4 nM.
